US10201542B2, “Formulations of pyrimidinedione derivative compounds” (AbbVie Inc., priority 2012, dated 2019)

Experiment: Solution-based crystallization study, in situ UV/Vis probe
Type: physicochemical
Settings: absence of polymer (control); pH 6.8 buffer, start about 80 μg/mL, FIG. 13-A
Description: Several polymers (Kollidon VA64, HPMC E5, HPMC K3, PVP K30, and Vitamin E TPGS) were evaluated for their effectiveness in inhibiting or delaying precipitation of the free acid of Compound A through a solution-based mechanism. About 0.05 mL of a highly concentrated solution of Compound A monosodium salt monohydrate dissolved in dimethyl sulfoxide (16 mg/mL on a free acid equivalent weight basis) was added to 10 mL of pH 6.8 sodium phosphate buffer (50 mM phosphate with ionic strength adjusted to 0.155 M with sodium chloride) containing one of the polymers at one of […] different concentrations (0% (control), 0.001%, 0.01%, and 0.1% (weight polymer/volume buffer %)) to provide a supersaturated Compound A solution (about 80 μg/mL on a free acid equivalent weight basis). The supersaturated solution was continuously stirred at 300 rpm at ambient temperatures (about 26° C.) and the solution concentration was monitored for 30 minutes by an in situ UV/Vis dip probe (μDISS Profiler™, pION Inc, Woburn, Mass. 01801, USA) using an external standard.

## COc1c(-c2ccc3cc(NS(C)(=O)=O)ccc3c2)cc(-n2ccc(=O)[nH]c2=O)cc1C(C)(C)C [Compound A, N-(6-(3-tert-butyl-5-(2,4-dioxo-3,4-dihydropyrimidin-1(2H)-yl)-2-methoxyphenyl)naphthalen-2-yl)methanesulfonamide]
  concentration of Compound A in the solution after decrease: about 20 μg/mL
